Reference: patent publication US20260242428A1, “POLYETHYLENIMINE-MODIFIED CRY PROTEINS AND THEIR USE” (priority 2024, published 2026)

What was measured:
[1] = test system: 3A-FDH/3A-LDH particles, unmodified (co-immobilized Cry3Aa-formate dehydrogenase and Cry3Aa-leucine dehydrogenase); test: NADH binding capacity of 3A-FDH/3A-LDH particles without PEI; settings: absorbance at 340 nm
[2] = biological target: T1, PEI-modified Cry3Aa (3A-PEI) crystals; Cry3Aa, SEQ ID NO: 4 (Bacillus thuringiensis subsp. tenebrionis, UniProt P0A379, F640R/R158P); test: Cofactor binding capacity of 3A-PEI crystals; settings: 0.25 mM cofactor, 20 μg crystals, 10° C., 30 min
T1 construct: made in house; host or cells: Bacillus thuringiensis B7407G
Method: To compare the binding capacity of 3A-PEI crystals with Cry3Aa and Pos3Aa crystals, the same experiment was conducted as the control.
To evaluate whether 3A-PEI crystals could binding to other phosphorylated cofactors, PLP, NAD^+, NADP^+, NADPH, FADH2, CoA, Riboflavin, and TPP (each at a concentration of 0.25 mM) were incubated with 20 μg of 3A-PEI crystals for 30 min under slow rotation at 10° C. Subsequently, the crystals were centrifugated and the amount of bound cofactor within the crystals was quantified.

[3] = biological target: T2, PEI-modified CadA-Cry1Ab fusion particles (E. coli lysine decarboxylase CadA, NP_418555, fused to Cry1Ab) (Escherichia coli, UniProt P0A9H3); test: PLP binding capacity of PEI-CadA-Cry1Ab particles
T2 construct: made in house; host or cells: E. coli BL21(DE3)
Method: For binding analysis, PEI-CadA-Cry1Ab fusion particles (50 μg/mL) were incubated with increasing concentrations of PLP (0-2 mM) for 25 min under gentle rotation at room temperature. After incubation, the particles were centrifuged at 8000 rpm for 10 min, and the unbound PLP in the supernatant was quantified. A calibration curve, generated from PLP standards treated under identical conditions, was used to determine the amount of PLP bound to the particles. To stabilize the absorbance peak of PLP following Schiff base formation with the protein, 1 M HCl was added to the unbound PLP supernatants in a 1:1 (v/v) ratio. After a 5-minute incubation, the absorbance of the unbound PLP was measured at 294 nm using an Eppendorf Bio-Spectrometer (Eppendorf AG. Germany). The PLP concentration was determined using a standard curve generated for various PLP amounts treated with 1M HCL based on the Beer-Lambert law.

[4] = biological target: T3, CadA-Cry1Ab fusion particles, unmodified (E. coli lysine decarboxylase CadA, NP_418555, fused to Cry1Ab) (Escherichia coli, UniProt P0A9H3); test: PLP binding capacity of unmodified CadA-Cry1Ab particles; settings: before PEI modification
T3 construct: made in house; host or cells: E. coli BL21(DE3)

SMILES | NADH retained [1] | binding affinity (binding capacity of cofactor) [2] | PLP binding capacity ([3]; PLP 0-2 mM, 25 min, room temperature) | PLP binding capacity enhancement by PEI modification ([3]; vs unmodified CadA-Cry1Ab) [fold] | PLP binding capacity [4]
NC(=O)C1=CN([C@@H]2O[C@H](COP(=O)(O)OP(=O)(O)OC[C@H]3O[C@@H](n4cnc5c(N)ncnc54)[C@H](O)[C@@H]3O)[C@@H](O)[C@H]2O)C=CC1 [NADH, nicotinamide adenine dinucleotide] | ~ 4.2±0.3 μmol NADH per g |  |  |  | 
Cc1ncc(C[n+]2csc(CCOP(=O)(O)OP(=O)(O)O)c2C)c(N)n1 [TPP] |  | 160±1 μmol/g of support |  |  | 
Cc1ncc(COP(=O)(O)O)c(C=O)c1O [PLP, Pyridoxal 5′-phosphate] |  | 650±2 μmol/g of support | ~ 1300 μmol/g | 13 | ~ 100 μmol/g
